Settings: level of nitrite and sulfite ions in the water

Substance: nitrite and sulfite ions
- Level at which the antiseptic effect is inadequate: less than 0.08 mg/L

Reference: US7964104B2, “Active antiseptic water or active water-based fluid, and production method and apparatus for the same” (Japan Techno Co., Ltd., priority 2003, dated 2011)
